Test results reported in patent US7932254B2, “Pyrrolopyrazine kinase inhibitors” (Roche Palo Alto, priority 2008, dated 2011).

Biological target: JAK3 (recombinant human kinase domain) (Homo sapiens, UniProt P52333)
Assay: Determination of IC50 of Janus Kinase (JAK) inhibition, radioactive end-point 33P-ATP assay, JAK3
Type: biochemical
Details: ATP 1.5 uM, peptide 50 uM, 20 minutes, room temperature, read-out: IC50 h-jak3-sf21-c
Description: Determination of IC50 of Janus Kinase (JAK) Inhibition: […]

Chain of JAK3 (recombinant human kinase domain) (P52333 822-1111 limits assumed): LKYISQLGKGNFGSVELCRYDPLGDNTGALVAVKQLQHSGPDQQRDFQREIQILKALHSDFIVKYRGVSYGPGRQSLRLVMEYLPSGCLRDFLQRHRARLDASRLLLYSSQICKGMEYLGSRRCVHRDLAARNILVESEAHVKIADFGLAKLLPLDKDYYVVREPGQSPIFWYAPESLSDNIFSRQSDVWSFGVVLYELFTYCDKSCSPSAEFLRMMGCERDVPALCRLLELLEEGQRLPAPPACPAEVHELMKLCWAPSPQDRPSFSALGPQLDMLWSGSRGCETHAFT

Row | IC50 [µM] | SMILES
1 | 0.158 | CN(c1cc(-c2cnc3[nH]cc(C(=O)C(C)(C)C)c3n2)cc2[nH]ccc12)S(=O)(=O)c1ccc(N)cc1 [Compound I-54, 4-Amino-N-{6-[7-(2,2-dimethyl-propionyl)-5H-pyrrolo[2,3-b]pyrazin-2-yl]-1H-indol-4-yl}-N-methyl-benzenesulfonamide]
2 | 0.0324 | CC1(C(=O)c2c[nH]c3ncc(-c4ccc5[nH]ccc5c4)nc23)CCCCC1 [Compound I-52, [2-(1H-Indol-5-yl)-5H-pyrrolo[2,3-b]pyrazin-7-yl]-(1-methyl-cyclohexyl)-methanone]
3 | 0.155 | CN1CC=C(c2c[nH]c3ccc(-c4cnc5[nH]cc(C(=O)C(C)(C)C)c5n4)cc23)CC1 [Compound I-50, 2,2-Dimethyl-1-{2-[3-(1-methyl-1,2,3,6-tetrahydro-pyridin-4-yl)-1H-indol-5-yl]-5H-pyrrolo[2,3-b]pyrazin-7-yl}-propan-1-one]
4 | 0.152 | CC(C)(C)C(=O)c1c[nH]c2ncc(-c3ccc4c(ccn4Cc4ccncc4)c3)nc12 [Compound I-49, 2,2-Dimethyl-1-[2-(1-pyridin-4-ylmethyl-1H-indol-5-yl)-5H-pyrrolo[2,3-b]pyrazin-7-yl]-propan-1-one]

Test system: not given
Assay: not given
Details: not given

Row | melting point [°C] | SMILES
5 | > 350 | CC(C)(C)C(=O)c1c[nH]c2ncc(-c3ccc4c(c3)NC(=O)CO4)nc12 [Compound I-9, 6-[7-(2,2-Dimethyl-propionyl)-5H-pyrrolo[2,3-b]pyrazin-2-yl]-4H-benzo[1,4]oxazin-3-one]
6 | 194 to 196 | CC(C)(C)C(=O)c1c[nH]c2ncc(-c3ccc4c(ccn4Cc4ccccn4)c3)nc12 [Compound I-46, 2,2-Dimethyl-1-[2-(1-pyridin-2-ylmethyl-1H-indol-5-yl)-5H-pyrrolo[2,3-b]pyrazin-7-yl]-propan-1-one]
7 | 243 to 244 | CN1CCOc2cc(-c3cnc4[nH]cc(C(=O)C5(C)CCCCC5)c4n3)ccc21 [Compound I-39, (1-Methyl-cyclohexyl)-[2-(4-methyl-3,4-dihydro-2H-benzo[1,4]oxazin-7-yl)-5H-pyrrolo[2,3-b]pyrazin-7-yl]-methanone]
8 | > 300 | CC(C)(C)C(=O)c1c[nH]c2ncc(-c3ccc4c(c3)SCC(=O)N4)nc12 [Compound I-22, 7-[7-(2,2-Dimethyl-propionyl)-5H-pyrrolo[2,3-b]pyrazin-2-yl]-4H-benzo[1,4]thiazin-3-one]
9 | 199 to 200.1 | CCc1cccc(-c2cnc3[nH]cc(C(=O)C(C)(C)C)c3n2)c1 [Example 9, 1-[2-(3-Ethyl-phenyl)-5H-pyrrolo[2,3-b]pyrazin-7-yl]-2,2-dimethyl-propan-1-one]
10 | 233 to 234 | CN1CCOc2cc(-c3cnc4[nH]cc(C(=O)C(C)(C)C)c4n3)ccc21 [Compound I-3, 2,2-Dimethyl-1-[2-(4-methyl-3,4-dihydro-2H-benzo[1,4]oxazin-7-yl)-5H-pyrrolo[2,3-b]pyrazin-7-yl]-propan-1-one]
11 | 255 to 265 | CN1CCOc2ccc(-c3cnc4[nH]cc(C(=O)C(C)(C)C)c4n3)cc21 [Compound I-8, 2,2-Dimethyl-1-[2-(4-methyl-3,4-dihydro-2H-benzo[1,4]oxazin-6-yl)-5H-pyrrolo[2,3-b]pyrazin-7-yl]-propan-1-one]
12 | 275 to 285 | CC(C)(C)C(=O)c1c[nH]c2ncc(-c3cc(NS(=O)(=O)c4ccccc4)c4cc[nH]c4c3)nc12 [Compound I-27, N-{6-[7-(2,2-Dimethyl-propionyl)-5H-pyrrolo[2,3-b]pyrazin-2-yl]-1H-indol-4-yl}-benzenesulfonamide]
13 | > 300 | CC(C)(C)C(=O)c1c[nH]c2ncc(-c3cc(NS(C)(=O)=O)c4cc[nH]c4c3)nc12 [Compound I-26, N-{6-[7-(2,2-Dimethyl-propionyl)-5H-pyrrolo[2,3-b]pyrazin-2-yl]-1H-indol-4-yl}-methanesulfonamide]
14 | > 300 | CC(C)(C)C(=O)c1c[nH]c2ncc(-c3ccc4c(c3)NC(=O)C(C)(C)O4)nc12 [Compound I-7, 6-[7-(2,2-Dimethyl-propionyl)-5H-pyrrolo[2,3-b]pyrazin-2-yl]-2,2-dimethyl-4H-benzo[1,4]oxazin-3-one]
15 | 285 to 292 | CC(C)(C)C(=O)c1c[nH]c2ncc(-c3cc(NS(=O)(=O)c4ccc(N)cc4)c4cc[nH]c4c3)nc12 [Compound I-19, 4-Amino-N-{6-[7-(2,2-dimethyl-propionyl)-5H-pyrrolo[2,3-b]pyrazin-2-yl]-1H-indol-4-yl}-benzenesulfonamide]
16 | 277 to 278 | CN1C(=O)COc2ccc(-c3cnc4[nH]cc(C(=O)C(C)(C)C)c4n3)cc21 [Compound I-10, 6-[7-(2,2-Dimethyl-propionyl)-5H-pyrrolo[2,3-b]pyrazin-2-yl]-4-methyl-4H-benzo[1,4]oxazin-3-one]
17 | 264 to 266 | CC(C)(C)C(=O)c1c[nH]c2ncc(-c3cc(NS(=O)(=O)c4ccc(Cl)cc4)c4cc[nH]c4c3)nc12 [Compound I-33, 4-Chloro-N-{6-[7-(2,2-dimethyl-propionyl)-5H-pyrrolo[2,3-b]pyrazin-2-yl]-1H-indol-4-yl}-benzenesulfonamide]
18 | 260 to 263 | CC(C)(C)C(=O)c1c[nH]c2ncc(-c3cc(N4CCCC4)ccn3)nc12 [Example 6, 2,2-Dimethyl-1-[2-(4-pyrrolidin-1-yl-pyridin-2-yl)-5H-pyrrolo[2,3-b]pyrazin-7-yl]-propan-1-one]
19 | 276 to 278 | CC(C)(C)C(=O)c1c[nH]c2ncc(-c3ccccn3)nc12 [Example 8, 2,2-Dimethyl-1-(2-pyridin-2-yl-5H-pyrrolo[2,3-b]pyrazin-7-yl)-propan-1-one]
20 | 263 to 265 | CN1CC=C(c2c[nH]c3ccc(-c4cnc5[nH]cc(C(=O)C(C)(C)C)c5n4)cc23)CC1 [Compound I-50, 2,2-Dimethyl-1-{2-[3-(1-methyl-1,2,3,6-tetrahydro-pyridin-4-yl)-1H-indol-5-yl]-5H-pyrrolo[2,3-b]pyrazin-7-yl}-propan-1-one]
21 | > 300 | CC1(C(=O)c2c[nH]c3ncc(-c4ccc5c(c4)NC(=O)C(C)(C)O5)nc23)CCCCC1 [Compound I-21, 2,2-Dimethyl-6-[7-(1-methyl-cyclohexanecarbonyl)-5H-pyrrolo[2,3-b]pyrazin-2-yl]-4H-benzo[1,4]oxazin-3-one]
22 | 170 to 171 | CC(C)(C)C(=O)c1c[nH]c2ncc(-c3ccc4c(ccn4Cc4cccnc4)c3)nc12 [Compound I-48, 2,2-Dimethyl-1-[2-(1-pyridin-3-ylmethyl-1H-indol-5-yl)-5H-pyrrolo[2,3-b]pyrazin-7-yl]-propan-1-one]
23 | 231 to 233 | COc1ccc(S(=O)(=O)Nc2cc(-c3cnc4[nH]cc(C(=O)C(C)(C)C)c4n3)cc3[nH]ccc23)cc1 [Compound I-35, N-{6-[7-(2,2-Dimethyl-propionyl)-5H-pyrrolo[2,3-b]pyrazin-2-yl]-1H-indol-4-yl}-4-methoxy-benzenesulfonamide]
24 | 305 to 307 | CC(C)(C)C(=O)c1c[nH]c2ncc(-c3cc(NS(=O)(=O)c4cccnc4)c4cc[nH]c4c3)nc12 [Compound I-37, Pyridine-3-sulfonic acid {6-[7-(2,2-dimethyl-propionyl)-5H-pyrrolo[2,3-b]pyrazin-2-yl]-1H-indol-4-yl}-amide]
25 | 241 to 243 | CC(C)(C)C(=O)c1c[nH]c2ncc(-c3ccc4c(ccn4Cc4ccncc4)c3)nc12 [Compound I-49, 2,2-Dimethyl-1-[2-(1-pyridin-4-ylmethyl-1H-indol-5-yl)-5H-pyrrolo[2,3-b]pyrazin-7-yl]-propan-1-one]
26 | 295 to 297 | CC(C)(C)C(=O)c1c[nH]c2ncc(-c3cc(NS(=O)(=O)c4ccc(F)cc4)c4cc[nH]c4c3)nc12 [Compound I-34, N-{6-[7-(2,2-Dimethyl-propionyl)-5H-pyrrolo[2,3-b]pyrazin-2-yl]-1H-indol-4-yl}-4-fluoro-benzenesulfonamide]
